Measured values: patent US9051325B2, “Bicyclic [5,6] imidazo pyrimodone compounds for use in the treatment of diseases or conditions mediated by Lp-PLA2” (GlaxoSmithKline Intellectual Property Development Limited, priority 2013, dated 2015)
Like-named read-outs stand apart in the source and are kept apart here.

Tests used:
[1] = target: T1, recombinant human Lp-PLA2 (Homo sapiens, UniProt Q13093); assay: Recombinant human Lp-PLA2 assay (rhLp-PLA2, PED6 assay); type: biochemical
T1 sequence (Q13093 22-441): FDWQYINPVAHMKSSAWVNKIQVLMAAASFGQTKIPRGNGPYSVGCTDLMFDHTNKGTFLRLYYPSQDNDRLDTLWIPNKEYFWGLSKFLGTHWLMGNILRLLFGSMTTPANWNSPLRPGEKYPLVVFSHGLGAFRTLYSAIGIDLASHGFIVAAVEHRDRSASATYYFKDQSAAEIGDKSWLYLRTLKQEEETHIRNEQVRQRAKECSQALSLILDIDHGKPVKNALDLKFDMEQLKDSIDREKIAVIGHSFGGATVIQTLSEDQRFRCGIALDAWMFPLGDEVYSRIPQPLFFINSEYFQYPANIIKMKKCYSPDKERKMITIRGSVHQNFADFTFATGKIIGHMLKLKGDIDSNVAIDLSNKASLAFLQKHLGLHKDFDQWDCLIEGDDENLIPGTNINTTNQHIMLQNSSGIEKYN
Description: (1) Recombinant Human Lp-PLA2 Assay (rhLp-PLA2) (Also Referred to as “PED6” Assay)
N-((6-(2,4-dinitrophenyl)amino)-hexanoyl)-2-(4,4-difluoro-5,7-dimethyl-4-bora-3a,4a-diaza-s-indacene-3-pentanoyl)-1-hexadecanoyl-sn-glycero-3-phosphoethanolamine, triethylammonium salt (PED6) is a commercially available fluorescently-labeled phospholipid, which is commercially available from Invitrogene and Molecular Probes. There is a quenching […] and a Bodipy fluorescein (FL) group in the sn2 position. Upon cleavage with Lp-PLA2, the Bodipy FL group is liberated and then may result in an increase in fluorescence. Inhibitors of Lp-PLA2 therefore prevent this cleavage and no fluorescent increase is observed.
The PED6 assay was run as an unquenched 10 μL assay. The source plate containing the compounds to be tested was prepared by making 1:3 (by volume) serial dilution of the compounds within DMSO on 384-well microplate. Then, 0.01 μL of the compounds on compound source plate were transferred into 384 well Greiner 784076 (black) plates using ECHO liquid dispenser. 5 μL of recombinant human Lp-PLA2 enzyme (4 nM (or […]) rhLp-PLA2 in assay buffer of 50 mM HEPES, pH 7.4, 150 mM NaCl, 1 mM CHAPS) was added to each well of the plate. Plates were centrifuged for 10 sec at 500 rpm. After 30 minutes preincubation, 5 μL of substrate ([…] PED6 [from 5 mM DMSO stock] in assay buffer of 50 mM HEPES, pH 7.4, 150 mM NaCl, 1 mM CHAPS) was added to 384 well Greiner 784076 (black) plates. Plates were centrifuged for 10 sec at 500 rpm. The plate was covered to protect it from light and incubated for 20 min at room temperature. The plates were read for fluorescence intensity at ex: 480/em: 540 using ViewLux microplate imager for Envision spectrofluoroimeters pIC50 data, curve and QC analysis was conducted by using XL fit module in Excel.

Lp-PLA2 in human plasma = target: T2, Lp-PLA2 in human plasma (Homo sapiens, UniProt Q13093); assay: Lp-PLA2 human plasma assay (Thio-PAF assay); type: biochemical; settings: pooled human plasma; lower bounds; read-out: pIC50 values in the thio-PAF assay (converted)
T2 construct: from tissue; host or cells: pooled human plasma
T2 sequence (Q13093 22-441): T1 sequence (Q13093 22-441)
Description: (3) Lipoprotein-Associated Phospholipase A2 (Lp-PLA2) Human Plasma Assay (Also Referred to as “Thio-PAF assay”)
The human plasma assay utilizes a thioester analog of PAF (phosphatidylcholine), where hydrolysis yields to the formation of a phospholipid containing a free thiol group. The amount of thiol is quantitated continuously by reacting with CPM (7-diethylamino-3-(4′-maleimidylphenyl)-4-methylcoumarin), a maleimide which increases in fluoresence after Michael addition of thiols. This assay may detect the activity of Lp-PLA2 in human plasma, as determined by specific inhibition by Lp-PLA2 inhibitors.
The thio-PAF assay was run as a quenched 15 μL assay. Compounds source plate was prepared by making 1:3 (by volume) serial dilution of the compounds into pure DMSO on 384-well microplate. 0.01 μL of compounds on compound source plate were transferred to 384 well Greiner 784076 (black) low-volume plates by ECHO liquid dispenser. 8 μL pooled human plasma, which was previously aliquoted and frozen, was added. Plates were centrifuged for 10 sec at 500 rpm. After 30 minutes preincubation, 2 μL of substrate solution comprising 2.5 mM 2-thio-PAF [from ethanol stock], 32 μM CPM [from a DMSO stock] and 3.2 mM NEM (N-ethylmaleimide) [made fresh daily in DMSO] in assay buffer of 50 mM HEPES, pH 7.4, 150 mM NaCl, 1 mM CHAPS was added to 384 well Greiner 784076 (black) low-volume plates by BRAVO liquid handling station. After 2 mins, reaction was quenched with 5 μL of 5% aqueous trifluoroacetic acid (TFA). Plates were covered to protect from light and incubated for 40 min at room temperature. Plates were read at ex: 380/em: 485 using-Envision microplate reader. PIC50 data, curve and QC analysis were conducted by using XLFit module in Excel.

[2] = lower bounds, read-out: pIC50 values in the PED6 assay (converted)
[3] = read-out: rhLp-PLA2 (PED6 assay) (pIC50) (converted)

SMILES | IC50 [1, 2] | IC50 (Lp-PLA2 in human plasma) | IC50 [1, 3]
CC1Cn2c(cc(OCc3ccc(Oc4cc(F)cc(C(F)(F)F)c4)c(C#N)c3)nc2=O)N1C (centres unmarked) [Example E1, 5-(((1,2-dimethyl-5-oxo-1,2,3,5-tetrahydroimidazo[1,2-c]pyrimidin-7-yl)oxy)methyl)-2-(3-fluoro-5-(trifluoromethyl)phenoxy)benzonitrile] | ≤ 1 nM | ≤ 100 nM | 
CC1Cn2c(cc(OCc3ccc(F)c(F)c3)nc2=O)N1C (centres unmarked) [Example E2, 7-((3,4-difluorobenzyl)oxy)-1,2-dimethyl-2,3-dihydroimidazo[1,2-c]pyrimidin-5(1H)-one] | ≤ 10 nM | ≤ 100 nM | 
CC1Cn2c(cc(OCc3ccc(Oc4ccc(C#N)c(C(F)(F)F)c4)c(F)c3)nc2=O)N1C (centres unmarked) [Example E3, 4-(4-(((1,2-dimethyl-5-oxo-1,2,3,5-tetrahydroimidazo[1,2-c]pyrimidin-7-yl)oxy)methyl)-2-fluorophenoxy)-2-(trifluoromethyl)benzonitrile] | ≤ 1 nM | ≤ 100 nM | 
C[C@H]1Cn2c(cc(OCc3ccc(F)c(F)c3)nc2=O)N1C [Example E7, (S)-7-((3,4-difluorobenzyl)oxy)-1,2-dimethyl-2,3-dihydroimidazo[1,2-c]pyrimidin-5(1H)-one] | ≤ 10 nM | ≤ 100 nM | 
CN1c2cc(OCCc3cccs3)nc(=O)n2CC1(C)C [Example E8, 1,2,2-trimethyl-7-(2-(thiophen-2-yl)ethoxy)-2,3-dihydroimidazo[1,2-c]pyrimidin-5(1H)-one] | ≤ 10 nM | ≤ 100 nM | 
C[C@H]1Cn2c(cc(OCc3ccc(Oc4ccnc(C(F)(F)F)c4)c(F)c3)nc2=O)N1C [Example E10, (S)-7-((3-fluoro-4-((2-(trifluoromethyl)pyridin-4-yl)oxy)benzyl)oxy)-1,2-dimethyl-2,3-dihydroimidazo[1,2-c]pyrimidin-5(1H)-one] | ≤ 1 nM | ≤ 100 nM | 
CN1c2cc(OCc3ccc(F)c(Cl)c3)nc(=O)n2CC1(C)C [Example E11, 7-((3-chloro-4-fluorobenzyl)oxy)-1,2,2-trimethyl-2,3-dihydroimidazo[1,2-c]pyrimidin-5(1H)-one] | ≤ 1 nM | ≤ 100 nM | 
CN1c2cc(OCc3ccc(Oc4ccc(Cl)nc4)c(F)c3)nc(=O)n2CC1(C)C [Example E12, 7-((4-((6-chloropyridin-3-yl)oxy)-3-fluorobenzyl)oxy)-1,2,2-trimethyl-2,3-dihydroimidazo[1,2-c]pyrimidin-5(1H)-one] | ≤ 1 nM | ≤ 100 nM | 0.0316 nM
CN1c2cc(OCc3cc(F)c(Oc4ccc(Cl)nc4)c(F)c3)nc(=O)n2CC1(C)C [Example E13, 7-((4-((6-chloropyridin-3-yl)oxy)-3,5-difluorobenzyl)oxy)-1,2,2-trimethyl-2,3-dihydroimidazo[1,2-c]pyrimidin-5(1H)-one] | ≤ 1 nM | ≤ 100 nM | 0.0501 nM
[2H]C([2H])(Oc1cc2n(c(=O)n1)CC(C)(C)N2C([2H])([2H])[2H])c1cccc(F)c1F [Example E15, 7-(dideutero(2,3-difluorobenzyl)oxy)-1-trideuteromethyl-2,2-dimethyl-2,3-dihydroimidazo[1,2-c]pyrimidin-5(1H)-one] | ≤ 10 nM | ≤ 100 nM | 
C[C@H]1Cn2c(cc(OCc3cc(F)c(Oc4ccc(C(F)(F)F)nc4)c(F)c3)nc2=O)N1 [Example E16, (S)-7-((3,5-difluoro-4-((6-(trifluoromethyl)pyridin-3-yl)oxy)benzyl)oxy)-2-methyl-2,3-dihydroimidazo[1,2-c]pyrimidin-5(1H)-one] | ≤ 1 nM | ≤ 100 nM | 
N#Cc1cc(COc2cc3n(c(=O)n2)CCN3C2CC2)ccc1Oc1cccc(C(F)(F)F)c1 [Example E18, 5-(((1-cyclopropyl-5-oxo-1,2,3,5-tetrahydroimidazo[1,2-c]pyrimidin-7-yl)oxy)methyl)-2-(3-(trifluoromethyl)phenoxy)benzonitrile] | ≤ 1 nM | ≤ 100 nM | 
C[C@H]1Cn2c(cc(OCc3ccc(Oc4ccc(C#N)c(C(F)(F)F)c4)c(F)c3)nc2=O)N1C [Example E19, (S)-4-(4-(((1,2-dimethyl-5-oxo-1,2,3,5-tetrahydroimidazo[1,2-c]pyrimidin-7-yl)ox-y)methyl)-2-fluorophenoxy)-2-(trifluoromethyl)benzonitrile] | ≤ 1 nM | ≤ 100 nM | 
C[C@H]1Cn2c(cc(OCc3ccc(Oc4cncc(Cl)c4)c(F)c3)nc2=O)N1C [Example E23, (S)-7-((4-((5-chloropyridin-3-yl)oxy)-3-fluorobenzyl)oxy)-1,2-dimethyl-2,3-dihydroimidazo[1,2-c]pyrimidin-5(1H)-one] | ≤ 1 nM | ≤ 100 nM | 0.158 nM
CN1c2cc(OCc3cc(F)c(Oc4ccnc(C(F)(F)F)c4)c(F)c3)nc(=O)n2CC1(C)C [Example E25, 7-((3,5-difluoro-4-((2-(trifluoromethyl)pyridin-4-yl)oxy)benzyl)oxy)-1,2,2-trimethyl-2,3-dihydroimidazo[1,2-c]pyrimidin-(1H)-one] | ≤ 1 nM | ≤ 100 nM | 0.0794 nM
CN1c2cc(OCc3ccc(Oc4cncc(C(F)(F)F)c4)c(F)c3)nc(=O)n2CC1(C)C [Example E26, 7-((3-fluoro-4-((5-(trifluoromethyl)pyridin-3-yl)oxy)benzyl)oxy)-1,2,2-trimethyl-2,3-dihydroimidazo[1,2-c]pyrimidin-5(1H)-one] | ≤ 1 nM | ≤ 100 nM | 0.0158 nM
CN1c2cc(OCc3ccc(Oc4ccnc(F)c4)c(F)c3)nc(=O)n2CC1(C)C [Example E29, 7-((3-fluoro-4-((2-fluoropyridin-4-yl)oxy)benzyl)oxy)-1,2,2-trimethyl-2,3-dihydroimidazo[1,2-c]pyrimidin-5(1H)-one] | ≤ 1 nM | ≤ 100 nM | 0.2 nM
CN1c2cc(OCc3cc(F)c(Oc4ccnc(Cl)c4)c(F)c3)nc(=O)n2CC1(C)C [Example E30, 7-((4-((2-chloropyridin-4-yl)oxy)-3,5-difluorobenzyl)oxy)-1,2,2-trimethyl-2,3-dihydroimidazo[1,2-c]pyrimidin-5(1H)-one] | ≤ 1 nM | ≤ 100 nM | 
CN1c2cc(OCc3cc(F)c(F)cc3F)nc(=O)n2CC1(C)C [Example E115, 1,2,2-trimethyl-7-((2,4,5-trifluorobenzyl)oxy)-2,3-dihydroimidazo[1,2-c]pyrimidin-5(1H)-one] |  | ≤ 100 nM | 
CN1c2cc(OCCc3ccc(F)c(F)c3)nc(=O)n2CC1(C)C [Example E117, 7-(3,4-difluorophenethoxy)-1,2,2-trimethyl-2,3-dihydroimidazo[1,2-c]pyrimidin-5(1H)-one] |  | ≤ 100 nM | 
